We go through six compounds from the RepoRT retention time repository (doi:10.1016/j.foodchem.2021.129757).

SMILES strings stand for the structures.

A short description of one series: RP, Agilent InfinityLab Poroshell 120 EC-C18, 100 × 3 mm, 2.7 µm, 25 °C, 0.4 mL/min, estimated dead time 1.1 min; A: water + 0.1% formic acid, pH 3; B: acetonitrile + 0.1% formic acid, pH 3; gradient (min/%B) 0/5 10/25 20/40 24/90 25/90 26/5 30/5. The note with it: stereoisomer not certain.
For `O=c1cc(-c2ccc(O)c(O)c2)oc2cc(O)cc(O)c12` [Luteolin], the LC retention time was 17.1 min.
Take `O=c1c(O)c(-c2ccc(O)cc2)oc2cc(O)cc(O)c12` [Kaempferol]: the LC retention time was 14.1 min.
For `COc1cc(C=O)ccc1O` [Vanillin], the LC retention time was 8.04 min.
Take `O=c1c(-c2ccc(O)cc2)coc2cc(O)cc(O)c12` [Genistein]: the LC retention time is 16.5 min.
With `O=c1c(OS(=O)(=O)O)c(-c2ccc(O)c(O)c2)oc2cc(O)cc(O)c12` [Quercetin 3-O-sulfate], the LC retention time is 12.6 min.

The nature of a further series: RP, Phenomenex Luna C18, 150 × 4.6 mm, 3 µm, 25 °C, 0.5 mL/min, estimated dead time 3.2 min; A: water + 0.1% formic acid, pH 3; B: acetonitrile + 0.1% formic acid, pH 3; gradient (min/%B) 0/0 30/30 35/40 50/80 52/80 60/0 65/0. The note with it: stereoisomer not certain.
With `O=c1cc(-c2ccc(O)c(O)c2)oc2cc(O)cc(O)c12` [Luteolin], the LC retention time is 42.1 min.
Same read-out and setting: under `O=c1c(O)c(-c2ccc(O)cc2)oc2cc(O)cc(O)c12` [Kaempferol] stands 37.7 min; under `COc1cc(C=O)ccc1O` [Vanillin], 21.1 min.
In the case of `Oc1cc(O)c2c(c1)OC(c1ccc(O)c(O)c1)C(O)C2` (single isomer, unassigned; (-)) [(-)-Epicatechin], the LC retention time was 15.9 min.
In the case of `O=c1c(-c2ccc(O)cc2)coc2cc(O)cc(O)c12` [Genistein], the LC retention time was 41.5 min.
As for `O=c1c(OS(=O)(=O)O)c(-c2ccc(O)c(O)c2)oc2cc(O)cc(O)c12` [Quercetin 3-O-sulfate], the LC retention time is 46.2 min.

The next series is described as follows: RP, 50 × 0.5 mm, 2.7 µm, 35 °C, 0.01 mL/min, estimated dead time 0.62 min; A: water + 0.1% formic acid, pH 3; B: acetonitrile + 0.1% formic acid, pH 3; gradient (min/%B) 0/5 12/95 14/95 16/5. The note with it: stereoisomer not certain.
As to `O=c1cc(-c2ccc(O)c(O)c2)oc2cc(O)cc(O)c12` [Luteolin], the LC retention time is 5.79 min.
For the compound `O=c1c(O)c(-c2ccc(O)cc2)oc2cc(O)cc(O)c12` [Kaempferol], the LC retention time is 6.31 min.
On to `COc1cc(C=O)ccc1O` [Vanillin], for which the LC retention time was 3.51 min.
On to `Oc1cc(O)c2c(c1)OC(c1ccc(O)c(O)c1)C(O)C2` (single isomer, unassigned; (-)) [(-)-Epicatechin], for which the LC retention time is 3.43 min.
Regarding `O=c1c(-c2ccc(O)cc2)coc2cc(O)cc(O)c12` [Genistein], the LC retention time is 6.06 min.

The next series is described as follows: RP, Phenomenex Luna Omega Polar C18, 100 × 2.1 mm, 1.6 µm, 40 °C, 0.5 mL/min, estimated dead time 0.44 min; A: water + 0.1% formic acid + 10 mM ammonium formate; B: acetonitrile; gradient (min/%B) 0/5 8/20 10/100 12/100 12.1/5 14/5. Conditions: stereoisomer not certain.
Regarding `O=c1cc(-c2ccc(O)c(O)c2)oc2cc(O)cc(O)c12` [Luteolin], the LC retention time was 9.48 min.
As for `O=c1c(O)c(-c2ccc(O)cc2)oc2cc(O)cc(O)c12` [Kaempferol], the LC retention time is 9.66 min.
As for `COc1cc(C=O)ccc1O` [Vanillin], the LC retention time is 5.38 min.
On to `Oc1cc(O)c2c(c1)OC(c1ccc(O)c(O)c1)C(O)C2` (single isomer, unassigned; (-)) [(-)-Epicatechin], for which the LC retention time is 4.95 min.
As for `O=c1c(-c2ccc(O)cc2)coc2cc(O)cc(O)c12` [Genistein], the LC retention time was 9.62 min.
On the same count and under the same terms, the same measure for `O=c1c(OS(=O)(=O)O)c(-c2ccc(O)c(O)c2)oc2cc(O)cc(O)c12` [Quercetin 3-O-sulfate]: 9.25 min.

The nature of a further series: RP, 100 × 0.5 mm, 2.7 µm, 45 °C, 0.015 mL/min, estimated dead time 0.83 min; A: water + 0.9% formic acid; B: acetonitrile + 0.9% formic acid; gradient (min/%B) 0/1 0.5/1 4/95 4.5/1 5/1. Conditions: stereoisomer not certain.
Regarding `O=c1cc(-c2ccc(O)c(O)c2)oc2cc(O)cc(O)c12` [Luteolin], the LC retention time was 2.97 min.
For `O=c1c(O)c(-c2ccc(O)cc2)oc2cc(O)cc(O)c12` [Kaempferol], the LC retention time is 3.2 min.
The same measure, in the same setting: the same measure for `COc1cc(C=O)ccc1O` [Vanillin]: 2.71 min.
For the compound `Oc1cc(O)c2c(c1)OC(c1ccc(O)c(O)c1)C(O)C2` (single isomer, unassigned; (-)) [(-)-Epicatechin], the LC retention time was 2.32 min.
Regarding `O=c1c(-c2ccc(O)cc2)coc2cc(O)cc(O)c12` [Genistein], the LC retention time was 3.17 min.
As for `O=c1c(OS(=O)(=O)O)c(-c2ccc(O)c(O)c2)oc2cc(O)cc(O)c12` [Quercetin 3-O-sulfate], the LC retention time was 2.82 min.

Another series in a line: RP, Agilent ZORBAX Eclipse XDB-C18, 100 × 2.1 mm, 1.8 µm, 50 °C, 0.4 mL/min, estimated dead time 0.55 min; A: water + 0.1% formic acid, pH 3; B: methanol + 0.1% formic acid, pH 3; gradient (min/%B) 0/2 10/100 14.5/100 14.51/2 16.5/2. Conditions: stereoisomer not certain.
Regarding `O=c1cc(-c2ccc(O)c(O)c2)oc2cc(O)cc(O)c12` [Luteolin], the LC retention time was 6.42 min.
As for `O=c1c(O)c(-c2ccc(O)cc2)oc2cc(O)cc(O)c12` [Kaempferol], the LC retention time is 6.86 min.
Regarding `COc1cc(C=O)ccc1O` [Vanillin], the LC retention time was 4.06 min.
The same measure, in the same setting: the same measure for `Oc1cc(O)c2c(c1)OC(c1ccc(O)c(O)c1)C(O)C2` (single isomer, unassigned; (-)) [(-)-Epicatechin]: 3.7 min; for `O=c1c(-c2ccc(O)cc2)coc2cc(O)cc(O)c12` [Genistein]: 6.56 min.
Consider `O=c1c(OS(=O)(=O)O)c(-c2ccc(O)c(O)c2)oc2cc(O)cc(O)c12` [Quercetin 3-O-sulfate], for which the LC retention time is 5.84 min.

The next series in a line: RP, Waters ACQUITY UPLC BEH Shield RP18, 150 × 2.1 mm, 1.7 µm, 40 °C, 0.4 mL/min, estimated dead time 0.83 min; A: water + 0.1% formic acid, pH 3; B: acetonitrile + 0.1% formic acid, pH 3; gradient (min/%B) 0/0 30/50 31/100 37/100 37.1/0. Conditions: stereoisomer not certain.
For the compound `O=c1cc(-c2ccc(O)c(O)c2)oc2cc(O)cc(O)c12` [Luteolin], the LC retention time was 20.2 min.
Regarding `O=c1c(O)c(-c2ccc(O)cc2)oc2cc(O)cc(O)c12` [Kaempferol], the LC retention time is 24.5 min.
Turning to `COc1cc(C=O)ccc1O` [Vanillin], the LC retention time was 7.83 min.
Regarding `O=c1c(-c2ccc(O)cc2)coc2cc(O)cc(O)c12` [Genistein], the LC retention time was 22.9 min.
As to `O=c1c(OS(=O)(=O)O)c(-c2ccc(O)c(O)c2)oc2cc(O)cc(O)c12` [Quercetin 3-O-sulfate], the LC retention time was 25.5 min.

The nature of another series: RP, Merck Supelco SUPELCOSIL LC-C18, 250 × 4.6 mm, 5 µm, 40 °C, 1 mL/min, estimated dead time 2.6 min; A: water + 0.1% trifluoroacetic acid, pH 2; B: acetonitrile + 0.1% trifluoroacetic acid, pH 2; gradient (min/%B) 0/5 45/35 47/75 49/35 50/5. Conditions: stereoisomer not certain.
For the compound `O=c1c(O)c(-c2ccc(O)cc2)oc2cc(O)cc(O)c12` [Kaempferol], the LC retention time was 43.8 min.
Take `Oc1cc(O)c2c(c1)OC(c1ccc(O)c(O)c1)C(O)C2` (single isomer, unassigned; (-)) [(-)-Epicatechin]: the LC retention time is 16.8 min.

A short description of another series: RP, Waters ACQUITY UPLC HSS T3, 100 × 2.1 mm, 1.8 µm, 30 °C, 0.4 mL/min, estimated dead time 0.55 min; A: water + 0.1% formic acid, pH 3; B: acetonitrile + 0.1% formic acid, pH 3; gradient (min/%B) 0/0 2/0 15/100 22/100 22.1/0 26/0. Conditions: stereoisomer not certain.
Consider `O=c1cc(-c2ccc(O)c(O)c2)oc2cc(O)cc(O)c12` [Luteolin], for which the LC retention time was 10.8 min.
Still for that read-out and setting: the same measure for `O=c1c(O)c(-c2ccc(O)cc2)oc2cc(O)cc(O)c12` [Kaempferol]: 11.6 min.
On to `COc1cc(C=O)ccc1O` [Vanillin], for which the LC retention time is 9.32 min.
